# Laboratory results taken from patent US20090252754A1, “Vaccines containing the hiv tat protein as an adjuvant for the enhancement of cytotoxic t-cell responses” (priority 2003, published 2009).
# What was measured:
# LMP2 = LMP2 expression in splenocytes of mice treated i.m. with Tat (Western blot); type: in vivo; settings: Balb/c mice, 1 μg i.m., 3 consecutive treatments
# Excerpt: Equal amounts of proteins were loaded on a 12% SDS-PAGE gel and electroblotted onto Protran nitrocellulose membranes (Schleicher & Schuell, Keene, Hampshire, USA). The blots were probed with antibodies specific for α2, LMP2, LMP7, MECL1, and PA28α subunits (Affinity, Exeter, UK) and developed by enhanced chemiluminescence (ECL, Amersham Pharmacia Biotech, Uppsala, SW).
# Animal use was according to national and institutional guidelines. Seven-to-eight week old female Balb/c mice (Nossan, Milan, Italy) were injected with native monomeric biologically active Tat protein (1 μg) resuspended in degassed sterile PBS. Control mice were injected with oxidised Tat (1 μg) or with PBS alone. Samples (100 μl) were given by intramuscular (i.m.) injections in the quadriceps muscles of the posterior legs. Each experimental group consisted of three mice, and the experiment was repeated twice. Mice were boosted at days 11 and 20 after the first injection. Seven days after the last injection, animals were anaesthetised intraperitoneally (i.p.) with 100 μl of isotonic solution containing 1 mg of Inoketan (Virbac, Milan, Italy), and 200 μg Rompun (Bayer, Milan, Italy) and sacrificed to collect spleens. Mononuclear cells from individual spleens were purified using cells strainers, resuspended in PBS containing 20 mM EDTA, and treated with a red blood cells lysis buffer for 4 minutes at room temperature. […]
# [1] = test system: proteasomes purified from MIN-Tat and MIN-0; test: In vitro degradation of CLG+5 epitope precursor by purified proteasomes (HPLC, IFN-γ ELISPOT of fractions); type: biochemical, human
# Experimental: 500 μg of synthetic peptide were incubated with 127 μg of purified proteasomes in 300 μl of buffer (25 mM Tris HCL pH 7.4, 5 mM MgCl2, 500 μM EDTA pH 8.0, 1 mM DTT, 2 mM ATP) at 37° C. At the indicated time points, 60 μl of sample were collected and the reaction was stopped by adding 2 volumes of ethanol at 0° C.
# Digestion mixtures were centrifuged at 5000 rpm for 5 minutes. 80 μl of supernatant were collected and peptide digests were separated by reverse-phase HPLC at the flow rate of 0.7 ml/min, as follows: linear gradient of 0-100% of solution B (acetonitrile 100% with 0.1% TFA) for 25 min, followed by linear gradient of 0-100% for solution A (water 100% with 0.1% TFA) for 5 min. The fractionation was simultaneously monitored at 210 and 280 nm. […]
# Plates were incubated for 24 h at 37° C., 5% CO2 and then washed three times with PBS and three times with washing buffer (PBS 0.05% Tween 20) before 100 μl of biotinylated anti-IFN-γ MAb (1 μg/ml; Endogen, Woburn, Mass.) were added, and incubated at 37° C. for 60 min. […] Wells were washed, and individual IFN-γ producing cells were detected using ABC chromogen kit (Sigma, Saint Louise, Mo.). IFN-γ-secreting T cells were counted by direct visualisation. The number of specific IFN-γ-secreting T cells, expressed as spot-forming cells (SFC) per 10^6 cells, was calculated by subtracting the negative control value. […]
# [2] = test system: MIN and MON LCL's (EBV IVT, AVF, YLQ, CLG epitopes); test: Cytotoxicity assay of EBV epitope-specific CTLs against LCL targets
# Experimental: HLA A11-restricted EBV-specific CTL cultures reacting against the EBNA4-derived [sequence] (SEQ ID NO 280) (IVT) and [sequence] […] (SEQ ID NO 282) (CLG) epitope, corresponding to amino acid 426-434^28, and the Lmp1-derived [sequence] […] The first stimulation was performed in RPMI 1640 medium containing 10% FCS. A second and a third stimulation were performed in the same conditions on day 7 and day 14. Starting from day 8 the medium was supplemented with 10 U/ml rIL-2 (Chiron, Milan, Italy).
# Target cells were labelled with Na2^51CrO4 for 90 min at 37° C. Cytotoxicity tests were routinely run at different effector: target ratios in triplicate. Percent specific lysis was calculated as 100×(cpm sample−cpm medium)/(cpm Triton X-100−cpm medium)^27. Spontaneous release was always less than 20%.
# To this purpose, the HLA-2 and -A11 positive MIN LCL and the HLA-A2 positive MON LCL, transduced or not with Tat, were tested as target in cytotoxic assays using CTL cultures specific for the IVT, AVF, CLG and YLQ epitopes (FIG. 6).
# [3] = test system: proteasome subunits (α2, LMP2, LMP7, MECL1) in Jurkat cells; test: Western blot of proteasome subunits in Jurkat cells expressing or treated with Tat, Tat mutants or Tat peptides; type: cell-based, human
# Experimental: Jurkat T cells expressing Tat or mutated Tat (referred to as Tat22, wherein a Cys at position 22 is mutated) have previously been described (1). Cells were cultured in a medium supplemented with 800 μg/ml neomycin (Sigma, St. Louise, […].).
# Cells were lysed with glass beads as previously described (4). Supernatants were ultracentrifuged for 1 h at 100,000 g and loaded into an affinity column containing a matrix derivatised with the MCP21 mAb specific for the α2 subunit of the proteasome (Affinity, Exeter, UK). Proteasomes were eluted with 25 mM Tris-HCl pH 7.5 containing 2 M NaCl, and 0.5 ml fractions were collected. Homogeneity of the eluted material was confirmed by analysis of an aliquot by SDS 12% PAGE and Coomassie blue staining of the gel. Fractions containing proteasomes were combined and dialysed against 25 mM Tris-HCl pH 7.5. Protein concentration was determined using the BCA method (Pierce Chemical, Rockford, Ill.).
# Equal amounts of proteins, or equal amounts of purified proteasomes, were loaded on a 12% SDS-PAGE and electro-blotted onto Protran nitrocellulose membranes (Schleicher & Schuell, Keene, Hampshire, USA). Blots were probed with Abs specific for α2, LMP2 LMP7, MECL1, and PA28α subunits (Affinity), and developed by enhanced chemi-luminescence (ECL, Amersham Pharmacia Biotech, Uppsala, SW).
# [4] = LCL expressing endogenous Tat vs empty vector
# [5] = MIN LCL treated with 0.1 μg/ml Tat protein for 24 hours vs untreated
# [6] = endogenous expression of Tat in Jurkat cells
substance,measurement,setting,value
"Tat: HIV-1 Tat protein from HTLV type IIIB isolate, expressed in E. Coli or endogenously in cells; wild type SEQ ID NO 284",LMP2 expression in splenocytes,LMP2,down-regulation
same,degradation of the CLG+5 peptide precursor,[1]; proteasomes from Tat-expressing cells (MIN-Tat) vs empty vector (MIN-0),more efficiently
same,generation of the immunogenic CLG peptide,"[1]; proteasomes from Tat-expressing cells, 120 min digests, CLG-specific CTL ELISPOT",generate with more efficiency
same,IVT- and AVF-specific CTL killing,[2]; [4],decrease
same,YLQ- and CLG-specific killing,[2]; [4],increase
same,lysis by YLQ- and CLG-specific CTLs,[2]; [5],lysed at higher efficiency
same,sensitivity to IVT- and AVF-specific CTL killing,[2]; [5],less sensitive
same,LMP2 expression in total cell lysates,[3]; Jurkat cells treated for 24 h with 0.1 μg/ml,induced down-regulation
same,expression of LMP2 subunit from purified proteasomes,"[3]; Jurkat cells, exogenous native Tat, 24 h, 0.1-1 μg/ml",maximal down-modulation
same,expression of LMP2,[3]; [6],down-regulation
same,expression of LMP7,[3]; [6],up-regulation
same,expression of MECL1,[3]; [6],up-regulation
